Like-named read-outs stand apart in the source and are kept apart here.
What was measured:
[1] = test system: PC-3; assay: SRB 48 h growth assay, Prostate PC-3; type: cell-based, human; conditions: PC-3, Prostate
[2] = test system: six leukemia cancer cell lines (CCRF-CEM, HL-60, K-562, MOLT-4, SR and RPMI-8226); assay: in vitro anticancer activity, leukemia panel; type: cell-based; conditions: Homo sapiens, exposure at least 48 h, read-out: GI50, range over panel
[3] = test system: MDA-MB-435; assay: SRB 48 h growth assay, Melanoma MDA-MB-435; type: cell-based, human; conditions: MDA-MB-435, Melanoma
[4] = test system: UACC-257; assay: SRB 48 h growth assay, Melanoma UACC-257; type: cell-based, human; conditions: UACC-257, Melanoma
[5] = test system: SNB-75; assay: SRB 48 h growth assay, CNS SNB-75; type: cell-based, human; conditions: SNB-75, CNS
[6] = test system: CCRF-CEM; assay: SRB 48 h growth assay, Leukemia CCRF-CEM; type: cell-based, human
[7] = test system: CAKI-1; assay: SRB 48 h growth assay, Renal CAKI-1; type: cell-based, human; conditions: CAKI-1, Renal
[8] = test system: U251; assay: SRB 48 h growth assay, CNS U251; type: cell-based, human
[9] = test system: ACHN; assay: SRB 48 h growth assay, Renal ACHN; type: cell-based, human
[10] = test system: A549/ATCC; assay: SRB 48 h growth assay, Non-small Cell Lung A549/ATCC; type: cell-based, human
[11] = test system: DU-145; assay: SRB 48 h growth assay, Prostate DU-145; type: cell-based, human; conditions: DU-145, Prostate
[12] = test system: OVCAR-3; assay: SRB 48 h growth assay, Ovarian OVCAR-3; type: cell-based, human; conditions: OVCAR-3, Ovarian
[13] = test system: two prostate cancer cell line (PC-3, DU-145); assay: in vitro anticancer activity, prostate panel; type: cell-based; conditions: Homo sapiens; two prostate cancer cell lines, exposure at least 48 h; read-out: GI50, range over panel
[14] = test system: OVCAR-5; assay: SRB 48 h growth assay, Ovarian OVCAR-5; type: cell-based, human; conditions: OVCAR-5, Ovarian
[15] = test system: six breast cancer cell line (MCF-7, MDA-MB-231/ATCC, HS 578T, TD-47D, MDA-MB-468 and BT-549); assay: in vitro anticancer activity, breast panel; type: cell-based; conditions: Homo sapiens; six breast cancer cell lines, exposure at least 48 h; read-out: GI50, range over panel
[16] = test system: MALME-3M; assay: SRB 48 h growth assay, Melanoma MALME-3M; type: cell-based, human
[17] = test system: HCT-116; assay: SRB 48 h growth assay, Colon HCT-116; type: cell-based, human; conditions: HCT-116, Colon
[18] = test system: SK-MEL-2; assay: SRB 48 h growth assay, Melanoma SK-MEL-2; type: cell-based, human; conditions: SK-MEL-2, Melanoma
[19] = test system: NCI-H23; assay: SRB 48 h growth assay, Non-small Cell Lung NCI-H23; type: cell-based, human
[20] = test system: A498; assay: SRB 48 h growth assay, Renal A498; type: cell-based, human
[21] = test system: six CNS cancer cell line (SF-268, SF-295, SF-539, SNB-19, SNB-75 and U251); assay: in vitro anticancer activity, CNS panel; type: cell-based; conditions: Homo sapiens; six CNS cancer cell lines, exposure at least 48 h; read-out: GI50, range over panel
[22] = test system: NCI/ADR-RES; assay: SRB 48 h growth assay, Ovarian NCI/ADR-RES; type: cell-based, human
[23] = test system: HCC-2998; assay: SRB 48 h growth assay, Colon HCC-2998; type: cell-based, human; conditions: HCC-2998, Colon
[24] = test system: HOP-92; assay: SRB 48 h growth assay, Non-small Cell Lung HOP-92; type: cell-based, human; conditions: Homo sapiens, HOP-92, Non-small Cell Lung
[25] = test system: NCI-H226; assay: SRB 48 h growth assay, Non-small Cell Lung NCI-H226; type: cell-based, human
[26] = test system: UACC-62; assay: SRB 48 h growth assay, Melanoma UACC-62; type: cell-based, human; conditions: UACC-62, Melanoma
[27] = Homo sapiens, read-out: Growth Inhibition GI50
[28] = Homo sapiens, read-out: Log10 GI50 (converted)
[29] = Homo sapiens, read-out: Log10 LC50 (converted)

## C#Cc1ccc(-n2c(/C=C/c3ccc(C(F)(F)F)cc3)nc3ncccc3c2=O)cc1 [4c, (E)-3-(4-Ethynylphenyl)-2-(4-(trifluoromethyl)styryl)pyrido[2,3-d]pyrimidin-4(3H)-one]
[1]; [27]
  GI50: 1.96 µM
[1]; [28]
  GI50: 1.95 µM
[1]; [29]
  CC50: > 100 µM
[1]
  Log10 TGI50: −5.20
[2]
  GI50: 0.45 to 2.43 µM
[3]; [27]
  GI50: 2.27 µM
[3]; [28]
  GI50: 2.29 µM
[3]; [29]
  CC50: > 100 µM
[3]
  Log10 TGI50: −5.19
[4]; [27]
  GI50: 1.56 µM
[4]; [28]
  GI50: 1.55 µM
[4]; [29]
  CC50: 5.62 µM
[4]
  Log10 TGI50: −5.53
[5]; [27]
  GI50: 1.81 µM
[5]; [28]
  GI50: 1.82 µM
[5]; [29]
  CC50: 28.2 µM
[5]
  Log10 TGI50: −5.14
[6]
  Log10 TGI50: >−4.00
[6]; Homo sapiens, CCKF-CEM, read-out: Log10 LC50 (converted)
  CC50: > 100 µM
[6]; [27]
  GI50: 1.95 µM
[6]; [28]
  GI50: 1.95 µM
[7]
  Log10 TGI50: −5.21
[7]; [27]
  GI50: 2.26 µM
[7]; [28]
  GI50: 2.24 µM
[7]; [29]
  CC50: > 100 µM
[8]
  Log10 TGI50: −5.50
[8]; Homo sapiens, U-251, read-out: Growth Inhibition GI50
  GI50: 1.67 µM
[8]; Homo sapiens, U-251, read-out: Log10 GI50 (converted)
  GI50: 1.66 µM
[8]; Homo sapiens, U-251, read-out: Log10 LC50 (converted)
  CC50: 5.89 µM
[9]
  Log10 TGI50: −5.49
[9]; [27]
  GI50: 1.71 µM
[9]; [28]
  GI50: 1.7 µM
[9]; [29]
  CC50: 6.17 µM
[10]
  Log10 TGI50: −5.34
[10]; [27]
  GI50: 1.83 µM
[10]; [28]
  GI50: 1.82 µM
[10]; [29]
  CC50: > 100 µM
[11]
  Log10 TGI50: −4.92
[11]; [27]
  GI50: 3.76 µM
[11]; [28]
  GI50: 3.72 µM
[11]; [29]
  CC50: 38.9 µM
[12]; [27]
  GI50: 1.67 µM
[12]; [28]
  GI50: 1.66 µM
[12]; [29]
  CC50: 6.03 µM
[12]
  Log10 TGI50: −5.50
[13]
  GI50: 2.35 to 7.45 µM
[14]; [27]
  GI50: 1.94 µM
[14]; [28]
  GI50: 1.95 µM
[14]; [29]
  CC50: 6.61 µM
[14]
  Log10 TGI50: −5.45
[15]
  GI50: 0.96 to 7.62 µM
[16]
  Log10 TGI50: −5.45
[16]; [27]
  GI50: 1.64 µM
[16]; [28]
  GI50: 1.66 µM
[16]; [29]
  CC50: 7.76 µM
[17]
  Log10 TGI50: −5.52
[17]; [27]
  GI50: 1.64 µM
[17]; [28]
  GI50: 1.62 µM
[17]; [29]
  CC50: 5.62 µM
[18]; [27]
  GI50: 2.03 µM
[18]; [28]
  GI50: 2.04 µM
[18]; [29]
  CC50: 8.32 µM
[18]
  Log10 TGI50: −5.39
[19]
  Log10 TGI50: −4.72
[19]; [27]
  GI50: 3.9 µM
[19]; [28]
  GI50: 3.89 µM
[19]; [29]
  LC50: > 100 µM
[20]
  Log10 TGI50: −5.24
[20]; [27]
  GI50: 2.34 µM
[20]; [28]
  GI50: 2.4 µM
[20]; [29]
  CC50: 24 µM
[21]
  GI50: 2.6 to 3.69 µM
[22]
  Log10 TGI50: −5.16
[22]; [27]
  GI50: 2.5 µM
[22]; [28]
  GI50: 2.51 µM
[22]; [29]
  CC50: > 100 µM
[23]
  Log10 TGI50: −5.46
[23]; [27]
  GI50: 1.96 µM
[23]; [28]
  GI50: 1.95 µM
[23]; [29]
  CC50: 6.17 µM
[24]; read-out: Growth Inhibition GI50
  GI50: 1.32 µM
[24]; read-out: Log10 GI50 (converted)
  GI50: 1.32 µM
[24]; read-out: Log10 LC50 (converted)
  CC50: 8.91 µM
[25]
  Log10 TGI50: −5.39
[25]; [27]
  GI50: 1.99 µM
[25]; [28]
  GI50: 2 µM
[25]; [29]
  LC50: 8.51 µM
[26]; [27]
  GI50: 1.62 µM
[26]; [28]
  GI50: 1.62 µM
[26]; [29]
  CC50: 7.94 µM
[26]
  Log10 TGI50: −5.44

From patent publication US9783537B2, “3-(4-ethylnylphenyl) pyridopyrimidinone compounds and process for preparation thereof useful as potential anticancer agents” (Council of Scientific & Industrial Research, priority 2013, dated 2017)
